The values that follow come from publication PMC11509018, “Evaluation of the Role of Tanshinone I in an In Vitro System of Charcot-Marie-Tooth Disease Type 2N” (International Journal of Molecular Sciences, 2024).

The structures appear in SMILES notation.

One series deals with T1, AlaRS^R329H (Homo sapiens, UniProt P49588, R329H).
T1 construct: made in house; host or cells: E. coli BL21 (DE3), pET-21a
T1 sequence (P49588 1-968 R329H): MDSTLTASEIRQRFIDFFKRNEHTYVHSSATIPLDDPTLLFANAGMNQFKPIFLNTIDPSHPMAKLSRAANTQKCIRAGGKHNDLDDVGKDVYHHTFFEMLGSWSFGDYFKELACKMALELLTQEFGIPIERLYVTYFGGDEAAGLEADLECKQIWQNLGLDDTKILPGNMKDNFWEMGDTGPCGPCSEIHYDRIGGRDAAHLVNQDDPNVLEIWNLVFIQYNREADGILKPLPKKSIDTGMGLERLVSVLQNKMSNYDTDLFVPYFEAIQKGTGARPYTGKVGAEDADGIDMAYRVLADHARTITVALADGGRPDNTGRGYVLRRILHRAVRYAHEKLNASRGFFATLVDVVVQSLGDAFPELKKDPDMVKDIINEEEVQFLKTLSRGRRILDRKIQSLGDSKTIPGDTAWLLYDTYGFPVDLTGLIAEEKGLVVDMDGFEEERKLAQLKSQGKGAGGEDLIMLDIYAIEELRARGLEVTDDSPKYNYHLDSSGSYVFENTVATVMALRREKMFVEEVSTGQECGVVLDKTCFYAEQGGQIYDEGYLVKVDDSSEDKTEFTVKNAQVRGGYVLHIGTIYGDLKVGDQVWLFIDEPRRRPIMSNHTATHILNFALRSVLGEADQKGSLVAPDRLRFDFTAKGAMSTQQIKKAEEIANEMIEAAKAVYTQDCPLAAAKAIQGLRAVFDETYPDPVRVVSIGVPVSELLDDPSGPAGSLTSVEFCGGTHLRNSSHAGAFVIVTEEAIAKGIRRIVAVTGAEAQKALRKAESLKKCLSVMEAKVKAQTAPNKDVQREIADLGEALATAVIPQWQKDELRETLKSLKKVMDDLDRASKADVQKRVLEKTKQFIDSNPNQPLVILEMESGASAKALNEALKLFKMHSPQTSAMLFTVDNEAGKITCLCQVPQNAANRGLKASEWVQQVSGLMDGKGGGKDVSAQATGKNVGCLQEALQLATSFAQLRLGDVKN
As to the kind of experiment: Thermal shift assay (TSA). Type of series: binding. The following applies: positive hit = shift of more than 2.5 °C. From the text:
In this assay, with increasing temperatures, the protein undergoes thermal unfolding, exposing its hydrophobic core. Subsequently, a fluorescent dye binds to these hydrophobic regions, becoming unquenched. Fluorescence is closely monitored, and the midpoint of the protein unfolding transition is designated as the Tm. Ligand binding frequently influences protein thermal stability during denaturation. Thus, the ligand binding affinity of any potential inhibitor can be gauged by evaluating the shift in the Tm. In this experiment, we screened a library of 2000 small molecules (Table S1) and classified as positive hits those that caused a shift in the Tm of the mutant protein of more than 2.5 °C. From the TSA, we identified four small molecules that met this criterion (Figure 2A, Table 1). Specifically, Atazanavir sulfate caused a shift of 4.0 °C, Tanshinone I a shift of 3.1 °C, Hederacolchiside A1 a shift of 4.3 °C, and Hexylresorcinol a shift of 5.5 °C (Figure 2B). To assess the impact of small molecules on the thermal stability of mutant proteins, thermal shift assays were performed using a […] (Applied Biosystems, Waltham, MA, USA) with the Protein Thermal Shift™ Kit dye (Thermo Fisher Scientific, Waltham, MA, USA). Each well of a 96-well Optical Reaction Plate (Applied Biosystems) contained 14 μL of thermal shift buffer, 2 μL of diluted thermal shift dye (8×), 2 μL of a 1 mM small molecule solution, and 2 μL of 1 mg/mL protein. Plates were incubated at 4 °C for 1 h before being heated from 25 °C to 95 °C at 1 °C/min. The fluorescence signal of SYPRO orange (excitation/emission: 490/530 nm) was recorded at 30 s intervals to monitor protein denaturation. The melting temperature (Tm), defined as the midpoint of the unfolding transition, was determined from the fluorescence–temperature curve. ΔTm was calculated as the difference in Tm between AlaRS^R329H treated with compounds and the control. Experiments were conducted in triplicate for accuracy. The experiment was repeated three times.

The subject of a further series is 293T cells. As to the kind of experiment: Cell viability (CCK-8 assay). Format: cell-based. The following applies: up to 40 μM, 24 h. The procedure:
(§1) Further validation of the safety and efficacy of Tanshinone I involved conducting cytotoxicity assays to ensure minimal toxicity to normal cells, while effectively inhibiting the abnormal interaction between AlaRS CMT mutants and Nrp1. We used the CCK-8 assay to evaluate the effects of Tanshinone I on 293T and NSC34 cells. Cells were treated with different concentrations of Tanshinone I for 24 h, followed by incubation with CCK-8 reagent. […] The Cell Counting Kit-8 (CCK-8) assay was performed to assess cell viability following the manufacturer’s instructions. Briefly, cells were seeded at an initial density of 5 × 10^3 cells per well in a 96-well plate and incubated overnight. The following day, the cells were treated with various concentrations of Tanshinone I. After 24 h of treatment, 10 μL of CCK-8 reagent (GlpBio, Montclair, CA, USA) was added to each well, and the plate was incubated at 37 °C with 5% CO2 for 1.5 h. Absorbance was then measured at 450 nm using a multimode microplate reader. The experiment was repeated three times.

The test system of a further series is NSC34 cells. The series is described as follows: Cell viability (CCK-8 assay). To be noted: up to 40 μM, 24 h. Type of series: cell-based. The procedure:
as §1

For the compound `Cc1coc2c1C(=O)C(=O)c1c-2ccc2c(C)cccc12` [Tanshinone I], the “ΔTm (shift between the Tm values of AlaRS^R329H with and without compounds)” value on AlaRS^R329H was 3.1 °C. Moreover, the Cell viability entry in the series on 293T cells and in the series on NSC34 cells was “did not significantly affect the viability” each time.
